From patent publication US7476691B2, “Sulfamate benzothiophene derivatives as steroid sulfatase inhibitors” (Laboratoire Theramex, priority 2003, dated 2009)

Columns and labels:
estrone sulfatase [1] = target: T1, estrone sulfatase (Homo sapiens, UniProt P08842); test: Estrone sulfatase whole-cell assay on JEG-3 cells; assay type: cell-based; parameters: The JEG-3 cell line, derived from a human placental choriocarcinoma, is spontaneously very rich in human estrone sulfatase; endogenous in cells; host or cells: JEG-3 (human placental choriocarcinoma), intact cells; conditions: 4 h treatment, 3H-E1S, read-out: IC50 (nM) ± S.E.M., inhibition of estrone sulfatase
T1 sequence (P08842 22-583): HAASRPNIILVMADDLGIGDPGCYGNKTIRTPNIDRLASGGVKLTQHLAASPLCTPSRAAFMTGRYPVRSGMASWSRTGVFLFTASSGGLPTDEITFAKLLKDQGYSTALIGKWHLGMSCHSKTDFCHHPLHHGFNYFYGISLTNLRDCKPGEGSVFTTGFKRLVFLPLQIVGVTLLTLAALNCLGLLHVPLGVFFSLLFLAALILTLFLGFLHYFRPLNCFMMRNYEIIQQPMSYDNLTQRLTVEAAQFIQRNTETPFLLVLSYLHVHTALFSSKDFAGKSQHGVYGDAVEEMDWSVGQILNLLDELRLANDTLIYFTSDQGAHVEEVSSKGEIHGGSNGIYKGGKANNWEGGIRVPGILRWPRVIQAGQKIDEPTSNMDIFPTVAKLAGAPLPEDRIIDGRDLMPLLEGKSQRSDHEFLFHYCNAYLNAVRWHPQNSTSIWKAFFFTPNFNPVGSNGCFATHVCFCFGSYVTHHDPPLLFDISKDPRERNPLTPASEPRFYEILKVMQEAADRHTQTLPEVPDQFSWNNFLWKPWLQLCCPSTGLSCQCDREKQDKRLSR
Experimental: (§1) Two in vitro models on whole cells were used. […] Moreover, these cells were used in the in vivo model of hormono-dependent induced xenografts.
(§2) Estrone Sulfatase Assay on Cells
(§3) Whole-cell assays were performed as originally described by Duncan et al. (Cancer Res., 1993, 53: 298-303) on intact MCF-7 cell monolayers. Assays were carried out with cells in logarithmic growth phase, on 96-well (JEG-3) or 24-well (MCF-7) microplates. Twenty-four hours (JEG-3) or 72 h (MCF-7) before studies, cells were seeded in decomplemented fetal calf serum (dFCS) supplemented medium. Then, the seeding medium was removed and the cells were rinsed with PBS to eliminate any trace of dFCS. Then, ^3H-E1S was added, followed by test compounds ranging from 10^−12 M to 10^−5 M. After 4 h (JEG-3) or 20 h (MCF-7) of treatment, the medium was transferred into either 96-deep-well microplates (JEG-3) or plastic tubes (MCF-7) and centrifuged at 200×g for 10 min to pellet cells before toluene extraction. A fraction of medium was used for toluene extraction in order to separate conjugated substrate and non-conjugated products. The radioactivity in the toluene phase was measured by liquid scintillation counting (LSC). Finally, estrone sulfatase activity was expressed in pmoles of ^3H-E1+^3H-E2 formed per 4 or 20 hours and per μg DNA and estrone sulfatase inhibition in percentage of control activity without inhibitor.

[2] = test system: ovariectomized Wistar female rats; test: Antiuterotrophic/antisulfatase activity: inhibition of E1S stimulated uterus weight; assay type: in vivo, rat
Experimental: A short model, derived from Purohit's method, was developed for the evaluation in vivo of nonestrogenic steroid sulfatase inhibitors.
Wistar female rats were ovariectomized and left to rest for 4 weeks. Prior to treatment, the absence of cyclicity was checked by vaginal smears.
Animals were supplemented with estrone sulfate (E1S) at 50 μg/kg/day s.c., alone or combined with oral administration of potential sulfatase inhibitors, at 1 mg/kg/day for 4 days. The uteri were removed, freed of adjacent tissue and wet weighed.
The results are expressed as % of inhibition of the E1S induced stimulation.
The activity of Ex 55 on E1S stimulated uterus weight was evaluated in relation to the standard inhibitor 6,6,7 COUMATE from 0.03 mg/kg/day to 1 mg/kg/day p.o.
(§4) In this study, a last administration was performed 24 hours before the necropsy for E1S and E2 serum levels assays. The uteri were removed, freed of adjacent tissue, wet weighed and immediately deep frozen until the determination of sulfatase activity.

estrone sulfatase [3] = target: T1, estrone sulfatase; test: Estrone sulfatase whole-cell assay on MCF-7 cells; assay type: cell-based; parameters: Whole-cell assays were performed as originally described by Duncan et al. (Cancer Res., 1993, 53: 298-303) on intact MCF-7 cell monolayers; endogenous in cells; host or cells: MCF-7 (human breast adenocarcinoma), intact monolayers; conditions: 20 h treatment, 3H-E1S, read-out: IC50 (nM) ± S.E.M., inhibition of estrone sulfatase
Experimental: as §1, §2, §3

[4] = Serum estrogen levels (E1S and E2) in treated rats; assay type: in vivo, rat; conditions: 24 h after last administration
Experimental: as §4
E1S and E2 levels were determined according to the supplier's standard method (DSL, Webster, Tex., USA).

steroid sulfatase = target: T2, steroid sulfatase (Homo sapiens, UniProt P08842); test: Xenograft steroid sulfatase activity; assay type: in vivo, mouse; conditions: oral 0.1 mg/kg/day for 6 weeks
T2 construct: from tissue; host or cells: MCF-7 xenograft tumour removed from athymic nude mice
T2 sequence (P08842 22-583): T1 sequence (P08842 22-583)
Experimental: (§5) MCF-7 cells, derived from human breast adenocarcinoma, were injected subcutaneously in ovariectomized athymic nude mice supplemented with estrone sulfate (pellets 0.5 mg/90 day release). Xenograft volumes were determined once weekly. When tumor volumes reached a significant increase, 6,6,7 COUMATE and Ex 55 were orally administered at 0.1 mg/kg/day for 6 weeks.
(§6) Xenografts were measured, removed, weighed, and deep frozen until the determination of steroid sulfatase activity.

MCF-7 cells = test: Hormono-dependent induced MCF-7 xenografts: volume and weight; assay type: in vivo, mice; conditions: oral 0.1 mg/kg/day for 6 weeks
Experimental: as §5, §6

[5] = MCF-7 xenografts, nude mice with E1S pellet

## NS(=O)(=O)Oc1ccc2c(c1)S(=O)(=O)C(CC1CCCCCC1)=C2 [Ex 55, Sulfamic acid, 2-cycloheptylmethyl-benzothiophene-6-yl-1,1-dioxide ester]
Estrone sulfatase [1]
  IC50: 7.7 ± 0.4 nM
[2]; 0.03 mg/kg/day p.o.
  Inhibition of E1S stimulated uterus weight: 0%
[2]; 0.1 mg/kg/day p.o.
  Inhibition of E1S stimulated uterus weight: 0%
[2]; 0.3 mg/kg/day p.o.
  Inhibition of E1S stimulated uterus weight: 36%
[2]; 1 mg/kg/day p.o.
  Inhibition of E1S stimulated uterus weight: 72%
[2]; ovariectomized rats, E1S 50 μg/kg/day s.c., compound oral 1 mg/kg/day for 4 days
  % inhibition of the E1S induced stimulation (uterus weight): 81%
[2]; summary of the antiuterotrophic assay
  inhibition of E1S stimulated uterus weight (in words): significant inhibition
Estrone sulfatase [3]
  IC50: 0.05 ± 0.01 nM
[4]; 0.03 mg/kg/day p.o.
  E1S levels (serum): 17 ± 2.5 ng/mL
  E2 levels (serum): 31 ± 2.8 pg/mL
[4]; 0.1 mg/kg/day p.o.
  E1S levels (serum): 21 ± 2.4 ng/mL
  E2 levels (serum): 28 ± 1.3 pg/mL
[4]; 0.3 mg/kg/day p.o.
  E1S levels (serum): 69 ± 5.9 ng/mL
  E2 levels (serum): 22 ± 1.2 pg/mL
[4]; 1 mg/kg/day p.o.
  E1S levels (serum): 83 ± 2.5 ng/mL
  E2 levels (serum): 15 ± 0.9 pg/mL
Steroid sulfatase; MCF-7 xenografts
  Xenograft steroid sulfatase activity: 263 ± 17 pmol/h/mg protein
Steroid sulfatase; read-out: inhibition of intratumoral steroid sulfatase activity
  inhibition at 0.1 mg/kg/day: 84%
MCF-7 cells; [5]
  Xenograft volume after 6 week treatment: 1488 ± 233 mm^3
  Xenograft weight after 6 week treatment: 877 ± 185 mg
MCF-7 cells
  inhibition of the E1S induced stimulation (xenograft volume): 18%
  inhibition of xenograft weight: 35%
other
  melting point: 135 °C
